According to patent US20110020326A1, “METHOD OF TREATING POLYCYSTIC KIDNEY DISEASE” (CHILDREN'S MEDICAL CENTER CORPORATION, priority 2008, published 2011):
Entries after “also recorded” stand apart in the source; their conditions may differ.

What was measured:
[1] = system: Pkd1^null/null embryonic kidneys; assay: Embryonic kidney organ culture model of PKD (8-Br-cAMP-induced cyst formation, H&E sections); assay type: cell-based, mouse; conditions: 96 hours of culture
Method: Embryonic mice kidneys of E13.5 were dissected out and cultured in media^29 (1% FBS, 5 mg/ml Transferin, 0.05 mM Sodium Selenite, 100 nM hydrocortisone, 2 nM T3, 25 ng/ml PGE1, 100 U/ml Penicillin/streptomycin, 100 mM 8-Br-cAMP) in Center-Well Organ Culture Dish (BD Labware, Franklin Lakes, N.J.). The following day, the kidneys from the same embryo were treated with either […] Met Kinase Inhibitor (Calbiochem, La Jolla, CA) or DMSO (the same volume with Met Kinase Inhibitor). The media were changed everyday with the same additives as above. After […], kidneys were fixed by 4% PFA, and embedded in paraffin. Paraffin sections were stained with hematoxylin and eosin.
Embryonic mice kidneys of E13.5 were dissected out and cultured in media (1% FBS, 5 mg/ml Transferin, 0.05 mM Sodium Seelenite, 100 nM hydrocortisone, 2 nM T3, 25ng/ml PGE1, 100 U/ml Penicillin/streptomycin, 100 mM 8-Br-cAMP) in Center-Well Organ Culture Dish (BD Labware, Franklin Lakes, N.J.). The following day, the kidneys from the same embryo were treated with either 2 microgram/ml c-MET blocking antibody (R&D Systems, Minneapolis, Minn.) or PBS (the same volume with c-Met blocking antibody). The media were changed everyday with the same additives as above. After 4 days, kidneys were fixed by 4% PFA, and embedded in paraffin. Paraffin sections were stained with hematoxylin and eosin.
E13.5 embryonic kidneys were put in organ culture along with 100 μM 8-Br-cAMP, with or without 5 μM c-MET inhibitor (SU11274, from Calbiochem). (B) E13.5 embryonic kidneys were put in organ culture along with 100 mM 8-Br-cAMP, with or without 5 μg/ml c-MET neutralizing antibody (R&D Systems). (C) E13.5 embryonic kidneys were put in organ culture along with 100 mM 8-Br-cAMP, with or without 0.5 μM c-MET inhibitor (PHA665752, from Tocris, UK). Hematoxylin & Eosin stained sections of kidneys are shown after 96 hours of culture.

[2] = system: mTOR phosphorylation in Pkd1^null/null cells; assay: mTOR phosphorylation (Western blot phospho-mTOR / total mTOR) in Pkd1 null/null cells; assay type: cell-based, mouse; conditions: c-Met inhibitor 5 mM for 40 min (FIG. 1 legend) / 5 μM, 4 hours (Example 5), FIG. 1a, b
Method: Pkd1 wild type (WT) and Pkd1^null/null cell line were isolated from embryonic day 15.5 kidneys from a cross of Pkd1^null/+ mice that also carry a temperature-sensitive simian virus 40 (SV40) large T-antigen transgene, similar with the protocol described in reference 23. Wt and Pkd1^null/null cells were cultured in Dulbecco's modified Eagle medium containing 2% fetal bovine serum, 0.75 μg/L γ-interferon, 1.0 g/L insulin, 0.67 mg/L sodium selenite, 0.55 g/L transferrin, 36 ng/ml hydrocortisone, 100 U/ml Penicillin/streptomycin under 33° C. and 5% CO2^23.
Immunoprecipitation and western-blot were performed using whole cell lysates unless otherwise specified. Confluent cells were collected, washed with PBS, lysed with lysis buffer (20 mM Tris/HCl, 1 mM EDTA, 150 mM NaCl, 1% Triton X-100) containing proteinase inhibitor cocktail tablet (Roche #1697498, Mannheim, Germany) at 4° C. for 30 minutes. After centrifugation at 13,000 rpm for 15 minutes, supernatants were incubated with specific antibody at 4° C. for 1 hour, followed by incubation with Protein G conjugated beads (Pierce Biotechnology, IL) at 4° C. for 2 hours, washed in lysis buffer. Samples were running on 7.5% acrylamide gel, transferred to PVDF membranes and visualized by immunoblotting with respective antibodies. […]

[3] = FIG. 6, Pkd1^null/null kidneys at E15.5, 10 mM 8-Br-cAMP, 5 μM c-MET inhibitor

| effect on nephrogenesis ([1]; FIG. 7C, E13.5 kidneys, 100 mM 8-Br-cAMP, 0.5 μM) | effect on nephrogenesis ([1]; FIG. 6, wild type and Pkd1^null/null kidneys, 5 μM c-MET inhibitor, listed as c-MET inhibitor) | effect on nephrogenesis ([1]; FIG. 6, wild type and Pkd1^null/null kidneys, 5 μM c-MET inhibitor, listed as c-Met inhibitor) | effect on nephrogenesis ([1]; FIG. 7A, E13.5 kidneys, 100 μM 8-Br-cAMP, 5 μM) | SMILES | cyst formation ([1]; FIG. 7C, E13.5 Pkd1 null/null kidneys, 100 mM 8-Br-cAMP, 0.5 μM) | mTOR phosphorylation [2] | mTOR phosphorylation ([2]; listed as Met Kinase Inhibitor) | cyst formation [1, 3] | size and number of cysts [1, 3] | cyst formation ([1]; FIG. 7A, E13.5 Pkd1 null/null kidneys, 100 μM 8-Br-cAMP, 5 μM) |
| --- | --- | --- | --- | --- | --- | --- | --- | --- | --- | --- |
| no apparent effect | – | – | – | Cc1[nH]c(/C=C2\C(=O)Nc3ccc(S(=O)(=O)Cc4c(Cl)cccc4Cl)cc32)c(C)c1C(=O)N1CCC[C@@H]1CN1CCCC1 [PHA665752, (2R)-1-[[5-[(Z)45-[[(2,6-Dichlorophenyl)methyl]sulfony 1]-1,2-dihydro-2-oxo-3H-indo1-3-ylidenelmethyl]-2,4-dimethyl-1H-pyrrol-3-yl]carbonyl]-2-(1-pyrrolidinylmethyl) pyrrolidone] | decreased | – | – | – | – | – |
| – | no apparent effect | did not have a marked effect | no apparent effect | Cc1[nH]c(/C=C2\C(=O)Nc3ccc(S(=O)(=O)N(C)c4cccc(Cl)c4)cc32)c(C)c1C(=O)N1CCN(C)CC1 [SU11274, (3Z)-N-(3-chlorophenyl)-3-({3,5-dimethyl-4-[(4-methylpiperazin-1-yl)carbonyl]-1H-pyrrol-2-yl}methylene)-N-methyl-2-oxoindoline-5-sulfonamide] | – | inhibited | reduced mTOR phosphorylation in Pkd1^null/null cells, to a baseline level observed in WT cells | reduced cyst formation in organ culture by Pkd1^null/null mutant kidneys to the basal level observed in WT kidneys; also recorded: decreased | decreased | decreased |
